# Legend:
# [1] = system: MAGE-11 mRNA; assay: MAGE-11 mRNA by real-time PCR in ECC-1 cells; type: cell-based, human; details: for change in MAGE-11 mRNA levels: 100 Units/ml hCG, 10 nM progesterone, 10 nM DHT or 10 ng/ml EGF
# Procedure: (§1) For MAGE-11 and AR mRNA in the human endometrial ECC-1 and Ishikawa cell lines, cells were passed 4 days prior to each experiment into medium without phenol red containing 5% charcoal stripped serum (Atlanta Biologicals, Lawrenceville, Ga.). […] RNA was extracted using RNeasy Plus Mini kit (Qiagen, Valencia, Calif.) and cDNA prepared from 4 μg total RNA as above. β-Glucuronidase (GusB) forward primer 5′-[…]-3′ (SEQ ID NO:4) and reverse primer 5′-[…]-3′ (SEQ ID NO:5) amplify a 65 by region coding for amino acid residues 120-140. The 5′-[…]-3′ (SEQ ID NO:6) GusB probe overlaps the exon 2 and 3 boundary. PCR was carried out in 20 μl reactions containing cDNA from 0.4 μg total RNA, 4 μl LightCycler TaqMan Master mix (Roche, Indianapolis, Ind.) and 0.5 μl 20× TaqMan Mix (Applied Biosystems, Foster City, Calif.) for AR or MAGE-11, or 0.5 μM primer and 0.2 μM probe for GusB. PCR reactions were 1 cycle at 95° C. for 10 min followed by 55 cycles of 95° C. for 15 sec, 60° C. for 25 sec and 72° C. for 1 sec in a Roche Lightcycler. […] Results were averaged from duplicates of 6 or 10 cm dishes of ECC-1 or Ishikawa cell cultures.
# [2] = system: MAGE-11 mRNA; assay: MAGE-11 mRNA by real-time PCR in Ishikawa cells; type: cell-based, human; details: for change in MAGE-11 mRNA levels: 100 Units/ml hCG, 10 nM progesterone, 10 nM DHT or 10 ng/ml EGF
# Procedure: as §1
# [3] = system: Flag-MAGE-11; details: COS cells, with wild-type AR, 2 and 10 nM DHT, 24 h
# [4] = system: AR mRNA; assay: AR mRNA by real-time PCR in ECC-1 cells; type: cell-based, human
# Procedure: as §1
# [5] = system: PR-B; assay: PR immunoblot in ECC-1 cells; type: cell-based, human; details: 10 nM E2 for 48 h
# Procedure: (§2) Immunoblot analysis. MAGE-11, AR, PR and ERα protein levels in ECC-1 (2×10^6/6 cm dish) and Ishikawa cells (4×10^6/10 cm dish) were determined by immunoblot. Cells were plated in medium without phenol red containing 5% charcoal stripped serum after culturing in the same media for 4 days. Cells were treated, washed and harvested in cold phosphate buffered saline containing 1 mM dithiothreitol, 1 mM phenylmethylsulfonyl fluoride, 5 μg/ml leupeptin, 5 μg/ml pepstatin A and 5 μg/ml aprotinin, and solubilized in buffer containing 1% Triton X-100, 0.15 M NaCl, 0.5 mM EDTA, 1% sodium deoxycholate, 0.1% SDS, 50 mM Tris-HCl, pH 7.4 and protease inhibitors listed above. […] Protein concentration was determined by BioRad assay using bovine serum albumin as standard.
# [6] = system: PR-B; assay: PR immunoblot in Ishikawa cells; type: cell-based, human; details: 10 nM E2 for 48 h
# Procedure: as §2
# [7] = system: MAGE-11 protein; assay: MAGE-11 immunoblot in Ishikawa cells; type: cell-based, human; details: 10 nM E2, 48 h
# Procedure: as §2
# [8] = system: MAGE-11 mRNA; assay: MAGE-11 mRNA by real time RT-PCR in LNCaP cells; type: cell-based, human
molecule,measurement,setting,value
"C[C@]12CCC(=O)C[C@@H]1CC[C@@H]1[C@@H]2CC[C@]2(C)[C@@H](O)CC[C@@H]12 [DHT, dihydrotestosterone]",change in MAGE-11 mRNA levels,[1]; ECC-1 cells,unchanged
same,change in MAGE-11 mRNA levels,[2],unchanged
same,effect on MAGE-11 protein levels,[3],declined
"C[C@]12CC[C@@H]3c4ccc(O)cc4CC[C@H]3[C@@H]1CC[C@@H]2O [E2, 17β-estradiol]",time required for inhibitory effect on MAGE-11 mRNA,[1]; ECC-1 cells,more than 6 h
same,effect on increase in MAGE-11 mRNA levels during culture,"[1]; ECC-1 cells, 0.01 nM E2, dose response, 48 h",partial inhibition
same,effect on increase in MAGE-11 mRNA levels during culture,"[1]; ECC-1 cells, 10 nM E2, 72 h culture in phenol red-free, charcoal stripped serum medium",blocked
same,effect on cAMP induced increase in MAGE-11 mRNA,"[1]; ECC-1 cells, 10 nM E2 with 2 mM dibutyryl-cAMP, greater extent than in Ishikawa cells",inhibited
same,concentration required to partially inhibit MAGE-11 expression relative to that required to increase AR expression (fold less),[1]; endometrial cell lines,~100 fold
same,effect on cAMP induced increase in MAGE-11 mRNA,"[2]; 10 nM E2 with dibutyryl-cAMP, 48 h, lesser extent than in ECC-1 cells",inhibited
same,increase in AR mRNA levels,[4]; 10 nM E2,~3 fold
same,E2 concentration required to increase AR mRNA,"[4]; dose response, 48 h",1 nM
same,effect on PR-B levels,[5],increased
same,effect on PR-B levels,[6],increased
same,effect on ~67 kDa MAGE-11 protein level,[7],declined
same,effect on cyclic-AMP induction of MAGE-11 mRNA,[8],not inhibited
"C[C@]12CC[C@@H]3c4ccc(O)cc4C[C@@H](CCCCCCCCC[S+]([O-])CCCC(F)(F)C(F)(F)F)[C@H]3[C@@H]1CC[C@@H]2O (stereo partly shown) [ICI-182,780]",effect on MAGE-11 mRNA levels,"[1]; ECC-1 cells, 1 μM ICI-182,780 in the absence and presence of E2 (0.1 nM), 48 h",increased
same,effect on E2 induced increase in AR mRNA,"[4]; 1 μM ICI-182,780",blocked
C=C[C@@]1(C)CC(=O)[C@]2(O)[C@@]3(C)[C@@H](O)CCC(C)(C)[C@@H]3[C@H](O)[C@H](OC(C)=O)[C@@]2(C)O1 [forskolin],increase in MAGE-11 mRNA levels,"[1]; ECC-1 cells, 50 μM",~4 fold
same,increase in MAGE-11 mRNA levels,[2]; 50 μM,~4 fold
CC(=O)[C@H]1CC[C@H]2[C@@H]3CCC4=CC(=O)CC[C@]4(C)[C@H]3CC[C@]12C [progesterone],MAGE-11 mRNA with progesterone after E2 pretreatment,"[1]; ECC-1 cells, pretreatment with 10 nM E2 for 48 h (data not shown)",no increase
same,change in MAGE-11 mRNA levels,[1]; ECC-1 cells,unchanged
same,change in MAGE-11 mRNA levels,[2],unchanged
same,MAGE-11 mRNA with progesterone after E2 pretreatment,[2]; pretreatment with 10 nM E2 for 48 h (data not shown),no increase
"EGF: EGF growth factor, used at 10 ng/ml",change in MAGE-11 mRNA levels,[1]; ECC-1 cells,unchanged
same,change in MAGE-11 mRNA levels,[2],unchanged
